Experimental findings from patent publication US20050276767A1, “Composition containing an oily phase and a naphthopyran dye, cosmetic treatment processes” (L'OREAL, priority 2002, published 2005) are described below.

Holding throughout (format): physicochemical
A short description of data set [1]: ΔE before/after UVA irradiation of dyes at 1% in a white lipstick base (Example 5). Conditions: 1% by weight dye in white lipstick base; UVA 2 mW/cm^2 for two minutes. The protocol: The ΔE (before and after UV irradiation for 2 minutes) of various photochromic dyes according to the invention was determined, at 1% by weight in a white lipstick base comprising:
A composition comprising 1% of dye according to the invention and 99% of the above base is thus prepared.
(§1) The L, a and b measurements were performed on a Leneta brand contrast card of reference Form 1A Penopac, for a composition spread to a thickness of 50 microns.
(§2) The reflection measurements were performed using a Minolta 3700D spectrocolorimeter.
(§3) The initial trichromatic coordinates of the composition before irradiation (L0, a0 and b0) were thus determined.
The compositions were then subjected to a UV irradiation (flux of 2 mW/cm^2 of a UVA radiation) for two minutes and then, immediately after stopping the irradiation, the trichromatic coordinates after irradiation (L, a and b) were determined. Less than 5 seconds elapsed between the stopping of the irradiation and the determination of the new coordinates.
(§4) The ΔE was then calculated in the following manner: ΔE=[(L−L0)^2+(a−a0)^2+(b−b0)^2]^1/2

Data set [2] can be described thus: Solvatochromism: ΔE′ of oil + dye mixture versus oil alone, transmission, no UV (Example 6). Also noted: key: ΔE′ = √(ΔL²+Δa²+Δb²), oil alone vs oil+dye, transmission. Conditions: without UV. As to the method:
The trichromatic coordinates (Lh, ah and bh) of the oil alone and of the oil+dye mixture (Lm, am and bm) were thus determined, and the ΔE′ was calculated in the following manner: ΔE′=[Lh−Lm)^2+(ah−am)^2+(bh−bm)^2]^1/2.
To do this, a Minolta 3700D spectrocolorimeter in transmission mode was used, with a plastic cuvette (“cuvette walls+oil+optional dye” optical path length=1 cm).

Data set [3] is described as follows: Visual colour change of the dye solution in phenylsilicone oil on UV (sunlight) irradiation (Example 2). Conditions: 0.05% by weight in phenylsilicone oil DC556. As to the method: A solution comprising 0.05% by weight of 3-phenyl-3-(4-piperidinophenyl)-6-morpholino-3H-naphtho[2,1-b]pyran (Reversacol Ruby from James Robinson) in a phenylsilicone oil (DC556 from Dow Corning) was prepared. The mixture was then irradiated with UV (sunlight) for 2 minutes.

A short description of data set [4]: ΔE of oil + dye mixtures after UVA irradiation (Example 7). Conditions: UVA 2 mW/cm^2 for 2 minutes. Also noted: key: ΔE = [(Lm′−Lm)^2+(am′−am)^2+(bm′−bm)^2]^1/2, before vs after UVA. The protocol:
The mixtures prepared in Example 6 were irradiated with UV (flux of 2 mW/cm^2 of UVA) for 2 minutes.
The trichromatic coordinates of the mixture after irradiation (Lm′, am′ and bm′) were again determined, as in Example 2, and the ΔE was calculated in the following manner: ΔE=[(Lm′−Lm)^2+(am′−am)^2+(bm′−bm)^2]^1/2.
Less than 5 seconds elapsed between stopping the irradiation and determining the new coordinates.

A short description of data set [5]: ΔE before/after UVA irradiation of wax-structured compositions, 50 micron film on contrast card, reflection (Examples 3 and 8). The protocol: as §1, §2
The initial trichromatic coordinates of the composition before irradiation (L0, a0 and b0) were thus determined. The composition was then subjected to a UV irradiation (flux of 2 mW/cm^2 of a UVA radiation) for two minutes and then, immediately after stopping the irradiation, the trichromatic coordinates after irradiation (L, a and b) were determined. Less than 5 seconds elapsed between the stopping of the irradiation and the determination of the new coordinates.
The ΔE was then calculated in the following manner: ΔE=[(L−L0)^2+(a−a0)^2+(b−b0) ^2]^1/2
A composition was prepared, comprising: • 0.05% by weight of 3-phenyl-3-(4-piperidinophenyl)-6-morpholino-3H-naphtho[2,1-b]pyran (Reversacol Ruby from James Robinson), • 15% by weight of polyethylene wax (apolar wax), • qs 100% of phenylsilicone oil (DC556 from Dow Corning).
as §3
The composition was then subjected to a UV irradiation (flux of 2 mW/cm^2 of a UVA radiation) for two minutes and then, immediately after stopping the irradiation, the trichromatic coordinates after irradiation (L, a and b) were determined. Less than 5 seconds elapsed between the stopping of the irradiation and the determination of the new coordinates.
as §4
15% by weight of polyethylene wax (apolar wax) was added to the mixtures prepared in Example 6 (oils+0.05% by weight of Reversacol Ruby dye), and the trichromatic coordinates L, a and b were then measured, before and after irradiation with UV for 2 minutes (flux of 2 mW/cm^2 of UVA) on thin films of composition, 50 microns thick, poured onto a contrast card.
To do this, a Minolta 3700D spectrocolorimeter in reflection mode was used; less than 5 seconds elapsed between stopping the irradiation and determining the new coordinates.

Data set [6] in a line: Solubility of the dye in various silicone oils, observed with the naked eye (Example 1). The protocol:
The term “soluble” means that the dyes form a uniform mixture, free of particles that are apparent to the naked eye, at 25° C. and 1 atmosphere, in a proportion of 0.05% by weight in the oily phase.
The solubility of a dye according to the invention in various silicone oils was studied. Several mixtures comprising 0.05% by weight of 3-phenyl-3-(4-piperidinophenyl)-6-morpholino-3H-naphtho[2,1-b]pyran (Reversacol Ruby from James Robinson) in various oils were thus prepared, and the mixture was then heated to 60° C. with stirring.

Where [7] appears, read: 0.05% dye in Capric/caprylic acid triglyceride.
The mark [8] stands for this setting: 0.05% dye in Diisostearyl malate.
[9] abbreviates: 0.05% dye in Hydrogenated polyisobutene.
[10] abbreviates: 0.05% dye in Isononyl isononanoate.
[11] abbreviates: 0.05% dye in Tridecyl trimellitate.

On to `COc1ccc(C2(c3ccc(OC)cc3)C=Cc3c(cc(N4CCOCC4)c4ccccc34)O2)cc1` [3,3-di(4-methoxyphenyl)-6-morpholino-3H-naphtho-[2,1-b]pyran], for which the ΔE in data set [1] is 51.

In data set [1], `C1=CC(c2ccccc2)(c2ccc(N3CCOCC3)cc2)Oc2cc(N3CCOCC3)c3ccccc3c21` (stereo not drawn) [3-phenyl-3-(4-morpholinophenyl)-6-morpholino-3H-naphtho[2,1-b]pyran] had a ΔE of 53.

For `C1=CC(c2ccccc2)(c2ccc(N3CCCCC3)cc2)Oc2cc(N3CCOCC3)c3ccccc3c21` (stereo not drawn) [Reversacol Ruby, 3-phenyl-3-(4-piperidinophenyl)-6-morpholino-3H-naphtho[2,1-b]pyran], the “ΔE′ of the oil + dye mixture” value in data set [2] (setting [7]) is 12.4093; in data set [2] (0.05% dye in Castor oil), 33.6278; in data set [2] (setting [8]) it was 12.9041; in data set [2] (setting [9]), 6.6920; in data set [2] (0.05% dye in Isododecane) it was 4.2421; in data set [2] (setting [10]) it was 7.7386. For the same molecule, the “ΔE′ of the oil + dye mixture” value worked out at 37.6049 in data set [2] (0.05% dye in Octyldodecanol), 14.2178 in data set [2] (setting [11]) and 12.8122 in data set [2] (0.05% dye in Triisononanoin). Also, the ΔE in data set [1] is reported as 49; in data set [4] (setting [7]), 23.70; in data set [4] (0.05% dye in Castor oil), 19.02; in data set [4] (setting [8]) it was 38.79; in data set [4] (setting [9]) it was 17.69; in data set [4] (0.05% dye in Isododecane), 19.17. In addition, the ΔE is 25.47 in data set [4] (setting [10]); 20.88 in data set [4] (0.05% dye in Octyldodecanol); 13.74 in data set [4] (setting [11]); 21.62 in data set [4] (0.05% dye in Triisononanoin); 37.38 in data set [5] (0.05% dye, 15% polyethylene wax, qs phenylsilicone oil DC556, UVA 2 mW/cm^2 for two minutes); 26.75 in data set [5] (15% wax + 0.05% dye in Castor oil, UVA 2 mW/cm^2 for 2 minutes, 50 micron film). The ΔE came out at 43.12 in data set [5] (15% wax + 0.05% dye in Diisostearyl malate, UVA 2 mW/cm^2 for 2 minutes, 50 micron film); 18.36 in data set [5] (15% wax + 0.05% dye in Hydrogenated polyisobutene, UVA 2 mW/cm^2 for 2 minutes, 50 micron film); 27.21 in data set [5] (15% wax + 0.05% dye in Isododecane, UVA 2 mW/cm^2 for 2 minutes, 50 micron film); 27.74 in data set [5] (15% wax + 0.05% dye in Isononyl isononanoate, UVA 2 mW/cm^2 for 2 minutes, 50 micron film); 31.09 in data set [5] (15% wax + 0.05% dye in Octyldodecanol, UVA 2 mW/cm^2 for 2 minutes, 50 micron film); 31.98 in data set [5] (15% wax + 0.05% dye in Tridecyl trimellitate, UVA 2 mW/cm^2 for 2 minutes, 50 micron film). The ΔE in data set [5] (15% wax + 0.05% dye in Triisononanoin, UVA 2 mW/cm^2 for 2 minutes, 50 micron film) worked out at 33.70. In addition, the “Initial coloration of the mixture before irradiation” value in data set [3] is “pink”. In data set [3] (UV (sunlight) for 2 minutes), the Coloration after irradiation result was “strong orange-red”. Moreover, the “Dissolution at elevated temperature (60° C.)” value in data set [6] (0.05% by weight dye in Phenyltrimethylsiloxytrisiloxane (20 cSt) DC556 from Dow Corning) and in data set [6] (0.05% by weight dye in Polyphenyltrimethylsiloxydimethylsiloxane (1000 cSt) Belsil PDM 1000 from Wacker) was “Total dissolution” throughout. In addition, in data set [6] (in the phenylsilicones, not for the other oils), the “Coloration of the solution of the dye (solvatochromic effect)” value is “pink coloration”. In data set [6] (non-phenylated silicone media, room temperature), the “Dissolution in the other silicone-based media after cooling to room temperature” value is on record as “virtually undissolved”. Further, in data set [6] (non-phenylated silicone oils, elevated temperature), the “Dissolution at elevated temperature in non-phenylated oils” value is “dissolves poorly”. In addition, in data set [6] (phenylated silicone oils, irrespective of viscosity, elevated temperature), the “Dissolution at elevated temperature in the phenylated oils” value is given as “complete”. In addition, in data set [6] (phenylsilicones, room temperature), the “Dissolution in phenylsilicones after cooling to room temperature” value was “virtually complete dissolution”.
